Among the data in patent US20240148821A1, “PHARMACEUTICAL USE OF CYCLIC PEPTIDE COMPOUND” (CHUGAI SEIYAKU KABUSHIKI KAISHA, priority 2021, published 2024) are IC50 values, retold here.

Numbered stars: 1 amine (or outer) side, 2 acyl side, 3 side chain; on linkers, the order of the positions; unused ones are H or OH. Bridge positions count the residues as written; N and C are the ends. Square brackets hold non-standard residues; d marks the D form. Peptide text beside a SMILES is read from it. * marks the point of attachment. hPhe(3,5-F2-4-CF3) = N[C@@H](CCc1cc(F)c(C(F)(F)F)c(F)c1)C(=O)O; hPhe(3-Cl-4-CF3) = N[C@@H](CCc1ccc(C(F)(F)F)c(Cl)c1)C(=O)O; hPhe(3-F,4-CF3) = N[C@@H](CCc1ccc(C(F)(F)F)c(F)c1)C(=O)O; NEtPhe(4-CF3) = CCN[C@@H](Cc1ccc(C(F)(F)F)cc1)C(=O)O; X118 = O=C([C@H](CCc1c(F)cc(F)cc1F)N[*:1])[*:2]; NMePhe(4-Cl) = CN[C@@H](Cc1ccc(Cl)cc1)C(=O)O; NMePhe(4-Me) = CN[C@@H](Cc1ccc(C)cc1)C(=O)O; NMedβ3hAla = C[C@H](CC(=O)[*:2])N(C)[*:1]; NMeGly(cPent) = CN[C@H](C(=O)O)C1CCCC1; NMeCha = CN[C@@H](CC1CCCCC1)C(=O)O; NMehLeu = CN[C@@H](CCC(C)C)C(=O)O; NMeAhp(2) = CCCCC[C@H](NC)C(=O)O; NMeF = CN[C@@H](Cc1ccccc1)C(=O)O; NMeI = CC[C@H](C)[C@H](NC)C(=O)O; d(β3hL) = CC(C)C[C@@H](N)CC(=O)O; Gly(cPr) = N[C@H](C(=O)O)C1CC1; NMeD = CN[C@@H](CC(=O)O)C(=O)O; NMeL = CN[C@@H](CC(C)C)C(=O)O; NMeAc5c = CNC1(C(=O)O)CCCC1; NMeV = CN[C@H](C(=O)O)C(C)C; d(β3hA) = C[C@@H](N)CC(=O)O; Azetidin(1-yl) = C1CN(*)C1; NMeS = CN[C@@H](CO)C(=O)O; NMeA = CN[C@@H](C)C(=O)O; Piperidide = C1CCN(*)CC1; Ac5c = NC1(C(=O)O)CCCC1; Aze = O=C(O)[C@@H]1CCN1; Cyclopropyl = C1CC1*; Sar = CNCC(=O)O

The experiment addresses protein-protein interaction between Kras and SOS1 (biotin-tagged human Kras loaded with GDP, His-tagged human SOS1) (Homo sapiens (Human), UniProt P01116, G12D). The experiment can be described thus: Protein-protein interaction inhibition between Kras and SOS1 (KrasG12D-SOS PPI) using AlphaScreen.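 Further: kras produced in E. coli, Ni-coupled donor beads and streptavidin acceptor beads, excitation 680 nm with emission detected at 520–620 nm via singlet oxygen transfer.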 The note with it: AlphaScreen; biotin-tagged human Kras loaded with GDP, His-tagged human SOS1; read-out: KRAS G12D-SOS PPI IC50. The class given is biochemical.
As for `CC[C@H](C)[C@@H]1NC(=O)[C@H](CC(C)C)N(C)C(=O)C[C@@H](C(=O)N2CCC2)N(C)C(=O)[C@H](C(C)C)N(C)C(=O)C2(CCCC2)NC(=O)[C@@H]2CCCN2C(=O)[C@H](CCc2ccc(C(F)(F)F)c(Cl)c2)NC(=O)CN(C)C(=O)[C@H](CC2CCCCC2)N(C)C(=O)[C@@H]2CCN2C(=O)[C@H](C)N(C)C1=O` [Compound 256] ([NMeL]I[NMeA][Aze][NMeCha][Sar][hPhe(3-Cl-4-CF3)]P[Ac5c][NMeV][NMeD]-{Azetidin(1-yl)}; lactam N-11), the IC50 came out at 0.98 nM.
The same measure for `CC[C@H](C)[C@@H]1NC(=O)[C@H](C)N(C)C(=O)C[C@@H](C)NC(=O)[C@H](CC(C)C)N(C)C(=O)[C@H](Cc2ccccc2)N(C)C(=O)[C@H](CC(C)C)NC(=O)[C@H](CCc2c(F)cc(F)cc2F)NC(=O)CN(C)C(=O)[C@H](Cc2ccc(Cl)cc2)N(C)C(=O)CN(C)C(=O)CN(C)C1=O` [Compound 2090] (cyclo(I[Sar][Sar][NMePhe(4-Cl)][Sar][X118]L[NMeF][NMeL][d(β3hA)][NMeA])): 380 nM; for `CC[C@H](C)[C@@H]1NC(=O)[C@H](CCC(C)C)N(C)C(=O)C[C@@H](C(=O)N(C)C)N(C)C(=O)[C@H](C2CCCC2)N(C)C(=O)C2(CCCC2)NC(=O)[C@@H]2CCCN2C(=O)[C@H](CCc2ccc(C(F)(F)F)c(F)c2)NC(=O)CN(C)C(=O)[C@H](CC2CCCCC2)N(C)C(=O)[C@@H]2CCN2C(=O)[C@H](C)NC1=O` [Compound 1292] ([NMehLeu]IA[Aze][NMeCha][Sar][hPhe(3-F,4-CF3)]P[Ac5c][NMeGly(cPent)][NMeD]-NMe2; lactam N-11): 2 nM.
As for `CC[C@H](C)[C@@H]1NC(=O)[C@H](CC(C)C)N(C)C(=O)C[C@@H](CC(C)C)NC(=O)[C@H]([C@@H](C)CC)N(C)C(=O)C2(CCCC2)NC(=O)[C@@H]2CCCN2C(=O)[C@H](CCc2cc(F)c(C(F)(F)F)c(F)c2)NC(=O)CN(C)C(=O)[C@H](Cc2ccc(C)cc2)N(C)C(=O)[C@@H]2CCN2C(=O)[C@H](C)N(C)C1=O` [Compound 1891] (cyclo([Ac5c][NMeI][d(β3hL)][NMeL]I[NMeA][Aze][NMePhe(4-Me)][Sar][hPhe(3,5-F2-4-CF3)]P)), the figure is 230 nM.
As for `CC[C@H](C)[C@@H]1NC(=O)[C@H](CC(C)C)N(C)C(=O)C[C@@H](C)N(C)C(=O)[C@H](CC(C)C)NC(=O)C2(CCCC2)N(C)C(=O)[C@H](CC(C)C)NC(=O)[C@H](CCc2ccc(C(F)(F)F)c(F)c2)NC(=O)CN(C)C(=O)[C@H](CC2CCCCC2)N(C)C(=O)CN(C)C(=O)CN(C)C1=O` [Compound 2] (cyclo(I[Sar][Sar][NMeCha][Sar][hPhe(3-F,4-CF3)]L[NMeAc5c]L[NMedβ3hAla][NMeL])), the figure is 15 nM; as for `CC(C)C[C@H]1C(=O)N[C@@H](C2CC2)C(=O)N(C)[C@@H](C)C(=O)N2CC[C@H]2C(=O)N(C)[C@@H](CC2CCCCC2)C(=O)N(C)CC(=O)N[C@@H](CCc2ccc(C(F)(F)F)c(Cl)c2)C(=O)N2CCC[C@H]2C(=O)NC2(CCCC2)C(=O)N(C)[C@@H](C(C)C)C(=O)N[C@H](C)CC(=O)N1C` [Compound 490] (cyclo([Ac5c][NMeV][d(β3hA)][NMeL][Gly(cPr)][NMeA][Aze][NMeCha][Sar][hPhe(3-Cl-4-CF3)]P)), 240 nM.
In the case of `CC[C@H](C)[C@@H]1NC(=O)[C@H](CC(C)C)N(C)C(=O)C[C@@H](C)N(C)C(=O)[C@H]([C@@H](C)CC)N(C)C(=O)C2(CCCC2)NC(=O)[C@@H]2CCCN2C(=O)[C@H](CCc2ccc(C(F)(F)F)c(Cl)c2)NC(=O)CN(C)C(=O)[C@H](Cc2ccc(C(F)(F)F)cc2)N(CC)C(=O)[C@@H]2CCN2C(=O)[C@H](C)N(C)C1=O` [Compound 898] (cyclo([Ac5c][NMeI][NMedβ3hAla][NMeL]I[NMeA][Aze][NEtPhe(4-CF3)][Sar][hPhe(3-Cl-4-CF3)]P)), the IC50 amounted to 12 nM.
On to `CC[C@H](C)[C@@H]1NC(=O)[C@H](CC(C)C)N(C)C(=O)C[C@@H](C(=O)N2CCCCC2)N(C)C(=O)[C@H](C(C)C)N(C)C(=O)C2(CCCC2)NC(=O)[C@@H]2CCCN2C(=O)[C@H](CCc2ccc(C(F)(F)F)c(Cl)c2)NC(=O)CN(C)C(=O)[C@H](CC2CCCCC2)N(C)C(=O)[C@@H]2CCN2C(=O)[C@H](COC2CC2)N(C)C1=O` [Compound 676] ([NMeL]I[NMeS](Cyclopropyl)[Aze][NMeCha][Sar][hPhe(3-Cl-4-CF3)]P[Ac5c][NMeV][NMeD]-Piperidide; lactam N-11), for which the IC50 was found to be 31 nM.
As for `CCCCC[C@H]1C(=O)N(C)CC(=O)N[C@@H](CCc2ccc(C(F)(F)F)c(Cl)c2)C(=O)N2CCC[C@H]2C(=O)NC2(CCCC2)C(=O)N(C)[C@@H](C(C)C)C(=O)N(C)[C@H](C(=O)N2CCCCC2)CC(=O)N(C)[C@@H](CC(C)C)C(=O)N[C@@H]([C@@H](C)CC)C(=O)N(C)[C@@H](C)C(=O)N2CC[C@H]2C(=O)N1C` [Compound 1854] ([NMeL]I[NMeA][Aze][NMeAhp(2)][Sar][hPhe(3-Cl-4-CF3)]P[Ac5c][NMeV][NMeD]-Piperidide; lactam N-11), the figure is 5.5 nM.

One may read the IC50 as the concentration needed to halve the response being measured.
